# Test results as given in article PMC5679212 (The Biochemical journal, 2014).
# Key:
# Assay type in all cases: binding
# [1] = target: T1, EphB6 (Ephrin type-B receptor 6) (Homo sapiens, UniProt O15197); test: thermal-shift assay
# T1 sequence (O15197 670-919 limits assumed): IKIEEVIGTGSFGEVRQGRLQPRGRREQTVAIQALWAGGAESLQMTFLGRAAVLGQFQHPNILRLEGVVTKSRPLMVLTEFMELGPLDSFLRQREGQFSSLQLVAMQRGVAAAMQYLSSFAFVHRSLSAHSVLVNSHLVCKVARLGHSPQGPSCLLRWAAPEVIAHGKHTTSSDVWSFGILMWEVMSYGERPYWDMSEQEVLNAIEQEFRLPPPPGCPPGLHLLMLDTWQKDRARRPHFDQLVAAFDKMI
# [2] = target: ULK4 (unc-51 like kinase 4) (Homo sapiens, UniProt Q96C45); test: thermal-shift assay
# ULK4 (unc-51 like kinase 4), sequence (Q96C45 1-288 limits assumed): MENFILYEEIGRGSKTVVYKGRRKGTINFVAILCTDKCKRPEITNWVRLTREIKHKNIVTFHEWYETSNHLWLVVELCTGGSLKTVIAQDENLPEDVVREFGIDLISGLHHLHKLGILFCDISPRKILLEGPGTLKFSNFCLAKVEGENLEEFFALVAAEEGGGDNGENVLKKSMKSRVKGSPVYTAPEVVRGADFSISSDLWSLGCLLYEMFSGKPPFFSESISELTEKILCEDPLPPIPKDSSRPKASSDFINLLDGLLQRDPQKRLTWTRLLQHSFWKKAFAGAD
# [3] = target: T2, MLKL (mixed lineage kinase domain-like) (Homo sapiens, UniProt Q8NB16); test: ITC and thermal-shift assay
# T2 sequence (Q8NB16 190-471 limits assumed): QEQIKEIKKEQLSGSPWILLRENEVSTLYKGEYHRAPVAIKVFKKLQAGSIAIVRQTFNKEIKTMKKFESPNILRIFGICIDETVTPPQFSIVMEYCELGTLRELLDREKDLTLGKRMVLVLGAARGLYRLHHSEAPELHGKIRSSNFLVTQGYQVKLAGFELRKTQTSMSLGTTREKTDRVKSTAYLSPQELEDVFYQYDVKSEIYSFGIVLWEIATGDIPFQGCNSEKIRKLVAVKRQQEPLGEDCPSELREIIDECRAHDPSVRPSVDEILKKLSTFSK
# TYK2(JH2) = TYK2(JH2) (Homo sapiens, UniProt P29597); test: thermal-shift assay
# TYK2(JH2), sequence (P29597 575-869): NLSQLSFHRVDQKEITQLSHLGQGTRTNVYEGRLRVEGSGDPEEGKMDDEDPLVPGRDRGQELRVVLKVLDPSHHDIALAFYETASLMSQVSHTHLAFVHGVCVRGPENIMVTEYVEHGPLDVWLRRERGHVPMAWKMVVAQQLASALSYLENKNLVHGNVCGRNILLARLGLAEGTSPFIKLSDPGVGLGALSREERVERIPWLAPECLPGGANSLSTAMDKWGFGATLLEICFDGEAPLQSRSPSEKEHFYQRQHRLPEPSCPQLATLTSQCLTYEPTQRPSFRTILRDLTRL
Structure (SMILES),thermal-shift assay (0.2 mM nucleotide) [1],thermal-shift assay (0.2 mM nucleotide) [2],Kd [3] [µM],"thermal-shift assay (40 μM ligand, ΔTm ≥3 °C) (TYK2(JH2))"
Nc1ncnc2c1ncn2[C@@H]1O[C@H](COP(=O)(O)OP(=O)(O)OP(=O)(O)O)[C@@H](O)[C@H]1O [ATP],we observed that ATP binding was still accomplished by EphB6 and ULK4 (Figures 3C and 3E),we observed that ATP binding was still accomplished by EphB6 and ULK4 (Figures 3C and 3E),~15,
"NCc1ccc(Nc2ncc(F)c(Nc3ccccc3)n2)cc1 [DAP, N′2′-(4-aminomethyl-phenyl)-5-fluoro-N′4′-phenyl-pyrimidine-2,4-diamine]",,,,consistent with the binding to the small-molecule kinase inhibitors DAP and VI16832 observed in the present study (Figure 2E)
